Laboratory results as given in ChEMBL document CHEMBL5532684, “Total Synthesis and Antibacterial Activity of Marine Tris-indole Alkaloid Tulongicin A” (2024).
Converted amounts (≈) assume the structure as drawn.

How the values were obtained:
Assay type in all cases: functional
Staphylococcus aureus [1] = experiment: Antibacterial activity against methicillin susceptible Staphylococcus aureus clinical isolate 3 assessed as inhibition of bacterial growth incubated overnight by CLSI protocol based assay; settings: read-out: MIC100
Staphylococcus aureus [2] = experiment: Antibacterial activity against methicillin resistant Staphylococcus aureus clinical isolate 2 assessed as inhibition of bacterial growth incubated overnight by CLSI protocol based assay; settings: read-out: MIC100
Staphylococcus aureus [3] = experiment: Bactericidal activity against methicillin susceptible Staphylococcus aureus clinical isolate 1 incubated overnight by CLSI protocol based assay; settings: read-out: MBC>99.9
Staphylococcus aureus [4] = experiment: Antibacterial activity against Staphylococcus aureus ATCC 29213 assessed as inhibition of bacterial growth incubated overnight by CLSI protocol based assay; settings: read-out: MIC100
Staphylococcus aureus [5] = experiment: Bactericidal activity against methicillin resistant Staphylococcus aureus clinical isolate 1 incubated overnight by CLSI protocol based assay; settings: read-out: MBC>99.9
Staphylococcus aureus [6] = experiment: Antibacterial activity against methicillin resistant Staphylococcus aureus clinical isolate 5 assessed as inhibition of bacterial growth incubated overnight by CLSI protocol based assay; settings: read-out: MIC100
Staphylococcus aureus [7] = experiment: Bactericidal activity against methicillin susceptible Staphylococcus aureus clinical isolate 3 incubated overnight by CLSI protocol based assay; settings: read-out: MBC>99.9
Escherichia coli [8] = experiment: Bactericidal activity against Escherichia coli ATCC 25922 incubated overnight by CLSI protocol based assay; settings: read-out: MBC>99.9
Staphylococcus aureus [9] = experiment: Antibacterial activity against methicillin resistant Staphylococcus aureus clinical isolate 3 assessed as inhibition of bacterial growth incubated overnight by CLSI protocol based assay; settings: read-out: MIC100
Staphylococcus aureus [10] = experiment: Bactericidal activity against methicillin resistant Staphylococcus aureus clinical isolate 4 incubated overnight by CLSI protocol based assay; settings: read-out: MBC>99.9
Staphylococcus aureus [11] = experiment: Bactericidal activity against methicillin susceptible Staphylococcus aureus clinical isolate 4 incubated overnight by CLSI protocol based assay; settings: read-out: MBC>99.9
Staphylococcus aureus [12] = experiment: Antibacterial activity against Staphylococcus aureus assessed as inhibition of bacterial growth
Staphylococcus aureus [13] = experiment: Antibacterial activity against methicillin susceptible Staphylococcus aureus clinical isolate 2 assessed as inhibition of bacterial growth incubated overnight by CLSI protocol based assay; settings: read-out: MIC100
Staphylococcus aureus [14] = experiment: Bactericidal activity against Staphylococcus aureus ATCC 29213 incubated overnight by CLSI protocol based assay; settings: read-out: MBC>99.9
Staphylococcus aureus [15] = experiment: Antibacterial activity against methicillin susceptible Staphylococcus aureus clinical isolate 1 assessed as inhibition of bacterial growth incubated overnight by CLSI protocol based assay; settings: read-out: MIC100
Escherichia coli [16] = experiment: Antibacterial activity against Escherichia coli ATCC 25922 assessed as inhibition of bacterial growth incubated overnight by CLSI protocol based assay; settings: read-out: MIC100
Staphylococcus aureus [17] = experiment: Bactericidal activity against methicillin resistant Staphylococcus aureus clinical isolate 3 incubated overnight by CLSI protocol based assay; settings: read-out: MBC>99.9
Staphylococcus aureus [18] = experiment: Antibacterial activity against methicillin resistant Staphylococcus aureus clinical isolate 4 assessed as inhibition of bacterial growth incubated overnight by CLSI protocol based assay; settings: read-out: MIC100
Pseudomonas aeruginosa [19] = experiment: Bactericidal activity against Pseudomonas aeruginosa ATCC 27853 incubated overnight by CLSI protocol based assay; settings: read-out: MBC>99.9
Staphylococcus aureus [20] = experiment: Bactericidal activity against methicillin resistant Staphylococcus aureus clinical isolate 2 incubated overnight by CLSI protocol based assay; settings: read-out: MBC>99.9
Pseudomonas aeruginosa [21] = experiment: Antibacterial activity against Pseudomonas aeruginosa ATCC 27853 assessed as inhibition of bacterial growth incubated overnight by CLSI protocol based assay; settings: read-out: MIC100
Staphylococcus aureus [22] = experiment: Bactericidal activity against methicillin susceptible Staphylococcus aureus clinical isolate 2 incubated overnight by CLSI protocol based assay; settings: read-out: MBC>99.9
Staphylococcus aureus [23] = experiment: Antibacterial activity against methicillin susceptible Staphylococcus aureus clinical isolate 4 assessed as inhibition of bacterial growth incubated overnight by CLSI protocol based assay; settings: read-out: MIC100
Staphylococcus aureus [24] = experiment: Antibacterial activity against methicillin resistant Staphylococcus aureus clinical isolate 1 assessed as inhibition of bacterial growth incubated overnight by CLSI protocol based assay; settings: read-out: MIC100
Staphylococcus aureus [25] = experiment: Bactericidal activity against methicillin susceptible Staphylococcus aureus clinical isolate 5 incubated overnight by CLSI protocol based assay; settings: read-out: MBC>99.9
Staphylococcus aureus [26] = experiment: Bactericidal activity against methicillin resistant Staphylococcus aureus clinical isolate 5 incubated overnight by CLSI protocol based assay; settings: read-out: MBC>99.9
Staphylococcus aureus [27] = experiment: Antibacterial activity against methicillin susceptible Staphylococcus aureus clinical isolate 5 assessed as inhibition of bacterial growth incubated overnight by CLSI protocol based assay; settings: read-out: MIC100

Row | Compound | MIC (Staphylococcus aureus [1]) [µg/mL] | MIC (Staphylococcus aureus [2]) [µg/mL] | MBC (Staphylococcus aureus [3]) [µg/mL] | MIC (Staphylococcus aureus [4]) [µg/mL] | MBC (Staphylococcus aureus [5]) [µg/mL] | MIC (Staphylococcus aureus [6]) [µg/mL] | MBC (Staphylococcus aureus [7]) [µg/mL] | MBC (Escherichia coli [8]) [µg/mL] | MIC (Staphylococcus aureus [9]) [µg/mL] | MBC (Staphylococcus aureus [11]) [µg/mL] | MIC (Staphylococcus aureus [13]) [µg/mL] | MBC (Staphylococcus aureus [14]) [µg/mL] | MIC (Staphylococcus aureus [15]) [µg/mL] | MIC (Escherichia coli [16]) [µg/mL] | MBC (Staphylococcus aureus [17]) [µg/mL] | MIC (Staphylococcus aureus [18]) [µg/mL] | MBC (Pseudomonas aeruginosa [19]) [µg/mL] | MBC (Staphylococcus aureus [20]) [µg/mL] | MIC (Pseudomonas aeruginosa [21]) [µg/mL] | MBC (Staphylococcus aureus [22]) [µg/mL] | also measured
1 | Brc1ccc2c(C(C3=NC[C@H](c4c[nH]c5cc(Br)ccc45)N3)c3c[nH]c4cc(Br)ccc34)c[nH]c2c1 | 2 (≈ 3 µM) | 1 (≈ 1.5 µM) | 16 (≈ 24 µM) | 2 (≈ 3 µM) | 128 (≈ 192 µM) | 1 (≈ 1.5 µM) | 16 (≈ 24 µM) | 32 (≈ 48 µM) | 2 (≈ 3 µM) | 128 (≈ 192 µM) | 2 (≈ 3 µM) | 4 (≈ 6 µM) | 1 (≈ 1.5 µM) | 16 (≈ 24 µM) | 2 (≈ 3 µM) | 2 (≈ 3 µM) | > 128 | 16 (≈ 24 µM) | > 128 | 2 (≈ 3 µM) | MBC (Staphylococcus aureus [10]): 16 µg/mL (≈ 24 µM); MIC (Staphylococcus aureus [12]): 1 µg/mL (≈ 1.5 µM); MIC (Staphylococcus aureus [23]): 2 µg/mL (≈ 3 µM); MIC (Staphylococcus aureus [24]): 2 µg/mL (≈ 3 µM); MBC (Staphylococcus aureus [25]): 64 µg/mL (≈ 96.1 µM); MBC (Staphylococcus aureus [26]): 2 µg/mL (≈ 3 µM); MIC (Staphylococcus aureus [27]): 2 µg/mL (≈ 3 µM)
2 | O=C(C1=NC[C@H](c2c[nH]c3cc(Br)ccc23)N1)c1c[nH]c2cc(Br)ccc12 (racemic) | 2 (≈ 4.11 µM) | 2 (≈ 4.11 µM) | 32 (≈ 65.8 µM) | 2 (≈ 4.11 µM) | > 128 | 2 (≈ 4.11 µM) | > 128 | > 128 | 2 (≈ 4.11 µM) | > 128 | 2 (≈ 4.11 µM) | 8 (≈ 16.5 µM) | 2 (≈ 4.11 µM) | > 128 | 4 (≈ 8.23 µM) | 2 (≈ 4.11 µM) | > 128 | 16 (≈ 32.9 µM) | > 128 | > 128 | MIC (Staphylococcus aureus [23]): 2 µg/mL (≈ 4.11 µM); MIC (Staphylococcus aureus [24]): 2 µg/mL (≈ 4.11 µM); MBC (Staphylococcus aureus [25]): 128 µg/mL (≈ 263 µM); MBC (Staphylococcus aureus [26]): 64 µg/mL (≈ 132 µM); MIC (Staphylococcus aureus [27]): 2 µg/mL (≈ 4.11 µM)
